# Experimental data published in US12331041B2, “GLP-1 receptor agonists and uses thereof” (Pfizer Inc., priority 2018, dated 2025).
# Structures can show the parent of a compound that is named as a salt.
# How the values were obtained:
# human GLP-1R [1] = target: T1, human GLP-1R (Homo sapiens, UniProt P43220, L260F); test: CHO GLP-1R Clone C6 - Assay 2 (HTRF cAMP agonist assay); assay type: cell-based; conditions: for EC50: CHO clone C6, low GLP-1R density, cAMP, geometric mean; for Emax: CHO clone C6, relative to saturating full agonist GLP-1 (1 μM), arithmetic mean
# T1 construct: expressed in transfected cells; host or cells: CHO Flp-In T-REx, clonal line C6 (pcDNA5-FRT-TO)
# T1 sequence (P43220 24-463 L260F): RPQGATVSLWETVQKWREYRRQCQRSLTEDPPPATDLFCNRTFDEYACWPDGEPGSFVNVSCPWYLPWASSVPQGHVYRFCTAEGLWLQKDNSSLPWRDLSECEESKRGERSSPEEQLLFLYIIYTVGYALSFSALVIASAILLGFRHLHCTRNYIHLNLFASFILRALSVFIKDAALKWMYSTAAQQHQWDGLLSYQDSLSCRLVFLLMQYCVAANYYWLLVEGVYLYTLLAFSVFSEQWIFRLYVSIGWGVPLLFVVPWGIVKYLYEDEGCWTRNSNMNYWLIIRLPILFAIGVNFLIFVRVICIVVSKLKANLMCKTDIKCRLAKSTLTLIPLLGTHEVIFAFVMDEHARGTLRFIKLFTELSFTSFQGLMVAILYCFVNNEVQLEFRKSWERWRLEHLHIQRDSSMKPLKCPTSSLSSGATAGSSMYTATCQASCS
# human GLP-1R [2] = target: T2, human GLP-1R (Homo sapiens, UniProt P43220, G168S); test: CHO GLP-1R Clone H6 - Assay 1 (HTRF cAMP agonist assay); assay type: cell-based; conditions: for EC50: CHO Clone H6, high GLP-1R density, cAMP, geometric mean; for Emax: CHO Clone H6, relative to saturating full agonist GLP-1 7-36 (1 μM), arithmetic mean
# T2 construct: expressed in transfected cells
# T2 sequence (P43220 24-463 G168S): as the sequence (P43220 24-463 L260F) above, with G145S, F237L counted along it
# Summary of the method: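 CHO Clone H6 cells stably expressing human GLP-1R (G168S) were plated 48 h, then given compound for 30 min at 37° C in HBSS/0.1% BSA/HEPES with 100 μM IBMX and 1% DMSO. cAMP was measured by HTRF against a standard curve.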
Compound,EC50 (human GLP-1R [1]) [µM],Emax (human GLP-1R [1]) [%],EC50 (human GLP-1R [2]) [µM],Emax (human GLP-1R [2]) [%]
"CCn1nncc1Cn1c(CN2CCC(c3cccnc3OCc3ccc(C#N)cc3F)CC2)nc2ccc(C(=O)O)cc21 [Example 17, 2-[(4-{2-[(4-cyano-2-fluorobenzyl)oxy]pyridin-3-yl}piperidin-1-yl)methyl]-1-[(1-ethyl-1H-1,2,3-triazol-5-yl)methyl]-1H-benzimidazole-6-carboxylic acid, trifluoroacetate salt]",0.15,91,0.006,86
"O=C(O)c1ccc2nc(CN3CCC(c4nccnc4OCc4ccc(Cl)cc4F)CC3)n(C[C@@H]3CCO3)c2c1 [Example 19, Ammonium 2-[(4-{3-[(4-chloro-2-fluorobenzyl)oxy]pyrazin-2-yl}piperidin-1-yl)methyl]-1-[(2S)-oxetan-2-ylmethyl]-1H-benzimidazole-6-carboxylate]",0.042,94,0.0053,90
"CCn1cncc1Cn1c(CN2CCC(c3nccnc3OCc3ccc(Cl)cc3F)CC2)nc2ccc(C(=O)O)cc21 [Example 20, 2-[(4-{3-[(4-chloro-2-fluorobenzyl)oxy]pyrazin-2-yl}piperidin-1-yl)methyl]-1-[(1-ethyl-1H-imidazol-5-yl)methyl]-1H-benzimidazole-6-carboxylic acid, trifluoroacetate salt]",0.0061,91,0.00034,80
"O=C(O)c1ccc2nc(CN3CCC(c4nccnc4OCc4ccc(Cl)cc4F)CC3)n(Cc3cocn3)c2c1 [Example 21, 2-[(4-{3-[(4-chloro-2-fluorobenzyl)oxy]pyrazin-2-yl}piperidin-1-yl)methyl]-1-(1,3-oxazol-4-ylmethyl)-1H-benzimidazole-6-carboxylic acid, trifluoroacetate salt]",0.37,91,0.014,73
"O=C(O)c1ccc2nc(CN3CCC(c4nccnc4OCc4ccc(Cl)cc4F)CC3)n(Cc3ncco3)c2c1 [Example 22, 2-[(4-{3-[(4-chloro-2-fluorobenzyl)oxy]pyrazin-2-yl}piperidin-1-yl)methyl]-1-(1,3-oxazol-2-ylmethyl)-1H-benzimidazole-6-carboxylic acid, trifluoroacetate salt]",0.023,82,0.0028,85
"COCCn1c(CN2CCC(c3nccnc3OCc3ccc(Cl)cc3F)CC2)nc2ccc(C(=O)O)cc21 [Example 23, 2-[(4-{3-[(4-chloro-2-fluorobenzyl)oxy]pyrazin-2-yl}piperidin-1-yl)methyl]-1-(2-methoxyethyl)-1H-benzimidazole-6-carboxylic acid, hydrochloride salt]",0.45,94,0.041,89
"O=C(O)c1ccc2nc(CN3CCC(c4nccnc4OCc4ccc(Cl)cc4F)CC3)n(Cc3cnco3)c2c1 [Example 24, 2-[(4-{3-[(4-chloro-2-fluorobenzyl)oxy]pyrazin-2-yl}piperidin-1-yl)methyl]-1-(1,3-oxazol-5-ylmethyl)-1H-benzimidazole-6-carboxylic acid, trifluoroacetate salt]",0.033,89,0.002,76
"N#Cc1ccc(COc2nccnc2C2CCN(Cc3nc4ccc(C(=O)O)cc4n3Cc3ncco3)CC2)c(F)c1 [Example 25, 2-[(4-{3-[(4-cyano-2-fluorobenzyl)oxy]pyrazin-2-yl}piperidin-1-yl)methyl]-1-(1,3-oxazol-2-ylmethyl)-1H-benzimidazole-6-carboxylic acid, trifluoroacetate salt]",0.073,91,0.0063,80
"Cn1cncc1Cn1c(CN2CCC(c3nccnc3OCc3ccc(Cl)cc3F)CC2)nc2ccc(C(=O)O)cc21 [Example 26, 2-[(4-{3-[(4-chloro-2-fluorobenzyl)oxy]pyrazin-2-yl}piperidin-1-yl)methyl]-1-[(1-methyl-1H-imidazol-5-yl)methyl]-1H-benzimidazole-6-carboxylic acid, trifluoroacetate salt]",0.038,86,0.0051,86
"CCn1cncc1Cn1c(CN2CCC(c3nccnc3OCc3ccc(C#N)cc3F)CC2)nc2ccc(C(=O)O)cc21 [Example 27, 2-[(4-{3-[(4-cyano-2-fluorobenzyl)oxy]pyrazin-2-yl}piperidin-l-yl)methyl]-1-[(1-ethyl-1H-imidazol-5-yl)methyl]-1H-benzimidazole-6-carboxylic acid, trifluoroacetate salt]",0.016,85,0.00084,86
"Cn1c(CN2CCC(c3nccnc3OCc3ccc(Cl)cc3F)CC2)nc2ncc(C(=O)O)cc21 [Example 30, 2-[(4-{3-[(4-chloro-2-fluorobenzyl)oxy]pyrazin-2-yl}piperidin-1-yl)methyl]-1-methyl-1H-imidazo[4,5-b]pyridine-6-carboxylic acid, hydrochloride salt]",2.8,110,0.14,79
"O=C(O)c1ccc2nc(CN3CCN(c4cccnc4OCc4ccc(Cl)cc4F)CC3)n(C[C@@H]3CCO3)c2c1 [Example 33, Ammonium 2-[(4-{2-[(4-chloro-2-fluorobenzyl)oxy]pyridin-3-yl}piperazin-1-yl)methyl]-1-[(2S)-oxetan-2-ylmethyl]-1H-benzimidazole-6-carboxylate]",0.084,110,0.0031,93
"Cn1cncc1Cn1c(C2CC23CCN(c2cccc(OCc4ccc(C#N)cc4F)n2)CC3)nc2ccc(C(=O)O)cc21 (centres unmarked) [Example 37, 2-(6-{6-[(4-cyano-2-fluorobenzyl)oxy]pyridin-2-yl}-6-azaspiro[2.5]oct-1-yl)-1-[(1-methyl-1H-imidazol-5-yl)methyl]-1H-benzimidazole-6-carboxylic acid, trifluoroacetate salt]",0.19,92,0.0093,88
"CCn1cncc1Cn1c(C2CC23CCN(c2nc(OCc4ccc(Cl)cc4F)ncc2F)CC3)nc2ccc(C(=O)O)cc21 (centres unmarked) [Example 39, 2-(6-{2-[(4-chloro-2-fluorobenzyl)oxy]-5-fluoropyrimidin-4-yl}-6-azaspiro[2.5]oct-1-yl)-1-[(1-ethyl-1H-imidazol-5-yl)methyl]-1H-benzimidazole-6-carboxylic acid, trifluoroacetate salt, from P7]",0.029,95,0.0016,90
"Cn1c(C2CC23CCN(c2nc(OCc4ccc(Cl)cc4F)ncc2F)CC3)nc2ccc(C(=O)O)nc21 (centres unmarked) [Example 40, 2-(6-{2-[(4-chloro-2-fluorobenzyl)oxy]-5-fluoropyrimidin-4-yl}-6-azaspiro[2.5]oct-1-yl)-3-methyl-3H-imidazo[4,5-b]pyridine-5-carboxylic acid, trifluoroacetate salt, from P7]",2,100,0.15,77
"O=C(O)c1ccc2nc(C3CC34CCN(c3nc(OCc5ccc(Cl)cc5F)ncc3F)CC4)n(Cc3cocn3)c2c1 (centres unmarked) [Example 43, 2-(6-{2-[(4-chloro-2-fluorobenzyl)oxy]-5-fluoropyrimidin-4-yl}-6-azaspiro[2.5]oct-1-yl)-1-(1,3-oxazol-4-ylmethyl)-1H-benzimidazole-6-carboxylic acid, trifluoroacetate salt, from P7]",0.25,70,0.013,75
"O=C(O)c1ccc2nc(C3CC34CCN(c3nc(OCc5ccc(Cl)cc5F)ncc3F)CC4)n(Cc3cnco3)c2c1 (centres unmarked) [Example 45, 2-(6-{2-[(4-chloro-2-fluorobenzyl)oxy]-5-fluoropyrimidin-4-yl}-6-azaspiro[2.5]oct-1-yl)-1-(1,3-oxazol-5-ylmethyl)-1H-benzimidazole-6-carboxylic acid, trifluoroacetate salt, from P7]",0.23,83,0.012,72
"Cn1c(C2CC23CCN(c2nc(OCc4ccc(C#N)cc4F)c(F)cc2F)CC3)nc2ccc(C(=O)O)cc21 (centres unmarked) [Example 59, 2-(6-{6-[(4-cyano-2-fluorobenzyl)oxy]-3,5-difluoropyridin-2-yl}-6-azaspiro[2.5]oct-1-yl)-1-methyl-1H-benzimidazole-6-carboxylic acid, trifluoroacetate salt]",0.12,85,0.0068,80
"Cn1cnnc1Cn1c(C2CC23CCN(c2nc(OCc4ccc(Cl)cc4F)c(F)cc2F)CC3)nc2ccc(C(=O)O)cc21 (centres unmarked) [Example 60, 2-(6-{6-[(4-chloro-2-fluorobenzyl)oxy]-3,5-difluoropyridin-2-yl}-6-azaspiro[2.5]oct-1-yl)-1-[(4-methyl-4H-1,2,4-triazol-3-yl)methyl]-1H-benzimidazole-6-carboxylic acid, trifluoroacetate salt]",0.11,110,0.005,91
"N#Cc1ccc(COc2nc(N3CCC4(CC3)CC4c3nc4ccc(C(=O)O)cc4n3Cc3ncco3)c(F)cc2F)c(F)c1 (centres unmarked) [Example 61, 2-(6-{6-[(4-cyano-2-fluorobenzyl)oxy]-3,5-difluoropyridin-2-yl}-6-azaspiro[2.5]oct-1-yl)-1-(1,3-oxazol-2-ylmethyl)-1H-benzimidazole-6-carboxylic acid, trifluoroacetate salt]",0.026,74,0.0011,68
